Like-named read-outs stand apart in the source and are kept apart here.

The record followed here is article PMC7026418, “The kinase polypharmacology landscape of clinical PARP inhibitors” (Scientific Reports, 2020).

Common to all, as to experiment: biochemical
Holding throughout (set-up): DiscoveRx KINOMEscan active site-directed competition binding; percent of control kinase bound to immobilised ligand

For assay [1], the target named is T1, p38-beta (Homo sapiens, UniProt Q15759).
T1 construct: gene MAPK11

Assay [2] has as its target HIPK1 (Homo sapiens, UniProt Q86Z02).
Assay [3] concerns the target T2, YES (Homo sapiens, UniProt P07947).
T2 construct: gene YES1

The target of assay [4] is T3, NIK (Homo sapiens, UniProt Q99558).
T3 construct: gene MAP3K14

Assay [5] deals with T4, ABL1(T315I)-nonphosphorylated (Homo sapiens, UniProt P00519, T315I).
T4 construct: nonphosphorylated

Assay [6] concerns the target MTOR (Homo sapiens, UniProt P42345).
For assay [7], the target named is CSNK1A1 (Homo sapiens, UniProt P48729).
Assay [8] deals with PKN2 (Homo sapiens, UniProt Q16513).
Assay [9] has as its target EGFR(G719C) (Homo sapiens, UniProt P00533, G719C).
For assay [10], the target named is T5, ULK1 (Homo sapiens, UniProt O75385).
T5 sequence (O75385 1-1050): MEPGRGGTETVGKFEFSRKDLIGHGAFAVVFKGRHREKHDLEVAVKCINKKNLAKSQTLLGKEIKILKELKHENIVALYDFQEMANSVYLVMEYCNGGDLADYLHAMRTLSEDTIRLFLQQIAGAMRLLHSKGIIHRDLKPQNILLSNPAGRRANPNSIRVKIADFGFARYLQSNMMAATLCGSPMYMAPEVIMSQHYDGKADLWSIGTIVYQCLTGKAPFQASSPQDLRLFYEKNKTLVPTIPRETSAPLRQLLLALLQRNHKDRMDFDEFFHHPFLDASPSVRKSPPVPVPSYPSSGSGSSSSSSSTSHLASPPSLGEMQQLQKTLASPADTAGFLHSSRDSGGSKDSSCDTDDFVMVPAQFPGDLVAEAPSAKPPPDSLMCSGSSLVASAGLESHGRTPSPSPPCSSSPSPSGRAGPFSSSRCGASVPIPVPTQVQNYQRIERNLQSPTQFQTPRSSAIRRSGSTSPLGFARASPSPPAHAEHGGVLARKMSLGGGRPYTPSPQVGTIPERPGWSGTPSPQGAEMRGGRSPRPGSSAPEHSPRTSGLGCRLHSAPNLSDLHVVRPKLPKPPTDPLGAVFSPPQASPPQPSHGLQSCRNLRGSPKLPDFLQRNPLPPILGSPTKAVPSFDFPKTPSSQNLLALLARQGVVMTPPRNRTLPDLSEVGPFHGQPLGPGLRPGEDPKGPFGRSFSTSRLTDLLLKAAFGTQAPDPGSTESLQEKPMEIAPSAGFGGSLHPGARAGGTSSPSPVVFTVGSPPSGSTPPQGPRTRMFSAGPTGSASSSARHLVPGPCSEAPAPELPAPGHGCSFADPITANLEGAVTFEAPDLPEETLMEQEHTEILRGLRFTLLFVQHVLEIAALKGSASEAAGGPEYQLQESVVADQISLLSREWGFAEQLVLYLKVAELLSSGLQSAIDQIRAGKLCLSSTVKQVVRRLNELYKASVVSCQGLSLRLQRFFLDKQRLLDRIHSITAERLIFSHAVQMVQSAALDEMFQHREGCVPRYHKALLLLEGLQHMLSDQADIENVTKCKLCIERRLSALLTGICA

The target in assay [11] is MKNK1 (Homo sapiens, UniProt Q9BUB5).
Assay [12] has as its target CAMK2D (Homo sapiens, UniProt Q13557).
Assay [13] has as its target T6, FLT3(ITD) (Homo sapiens, UniProt P36888, ITD).
T6 sequence (P36888 564-993): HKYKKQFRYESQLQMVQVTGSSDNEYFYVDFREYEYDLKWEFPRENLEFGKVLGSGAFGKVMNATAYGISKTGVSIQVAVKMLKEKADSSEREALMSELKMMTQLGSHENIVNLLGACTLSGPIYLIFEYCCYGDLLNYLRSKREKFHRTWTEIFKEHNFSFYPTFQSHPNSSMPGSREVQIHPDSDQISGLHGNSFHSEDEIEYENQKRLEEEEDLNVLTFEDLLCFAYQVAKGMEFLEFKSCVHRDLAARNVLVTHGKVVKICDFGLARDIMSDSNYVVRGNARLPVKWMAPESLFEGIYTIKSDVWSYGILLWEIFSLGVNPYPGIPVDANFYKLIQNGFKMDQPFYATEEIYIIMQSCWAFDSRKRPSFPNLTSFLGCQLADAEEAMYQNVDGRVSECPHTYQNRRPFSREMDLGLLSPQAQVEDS

The mark [14] stands for this setting: read-out: Niraparib (MK-4827) / %Ctrl @ 10000nM.
Where [15] appears, read: read-out: Talazoparib (BMN 673) / %Ctrl @ 10000nM.
The mark [16] stands for this setting: read-out: Rucaparib / %Ctrl @ 10000nM, binding competition, % of control.
Where [17] appears, read: read-out: Olaparib / %Ctrl @ 10000nM.

EGFR(G719C), sequence (P00533 whole entry G719C): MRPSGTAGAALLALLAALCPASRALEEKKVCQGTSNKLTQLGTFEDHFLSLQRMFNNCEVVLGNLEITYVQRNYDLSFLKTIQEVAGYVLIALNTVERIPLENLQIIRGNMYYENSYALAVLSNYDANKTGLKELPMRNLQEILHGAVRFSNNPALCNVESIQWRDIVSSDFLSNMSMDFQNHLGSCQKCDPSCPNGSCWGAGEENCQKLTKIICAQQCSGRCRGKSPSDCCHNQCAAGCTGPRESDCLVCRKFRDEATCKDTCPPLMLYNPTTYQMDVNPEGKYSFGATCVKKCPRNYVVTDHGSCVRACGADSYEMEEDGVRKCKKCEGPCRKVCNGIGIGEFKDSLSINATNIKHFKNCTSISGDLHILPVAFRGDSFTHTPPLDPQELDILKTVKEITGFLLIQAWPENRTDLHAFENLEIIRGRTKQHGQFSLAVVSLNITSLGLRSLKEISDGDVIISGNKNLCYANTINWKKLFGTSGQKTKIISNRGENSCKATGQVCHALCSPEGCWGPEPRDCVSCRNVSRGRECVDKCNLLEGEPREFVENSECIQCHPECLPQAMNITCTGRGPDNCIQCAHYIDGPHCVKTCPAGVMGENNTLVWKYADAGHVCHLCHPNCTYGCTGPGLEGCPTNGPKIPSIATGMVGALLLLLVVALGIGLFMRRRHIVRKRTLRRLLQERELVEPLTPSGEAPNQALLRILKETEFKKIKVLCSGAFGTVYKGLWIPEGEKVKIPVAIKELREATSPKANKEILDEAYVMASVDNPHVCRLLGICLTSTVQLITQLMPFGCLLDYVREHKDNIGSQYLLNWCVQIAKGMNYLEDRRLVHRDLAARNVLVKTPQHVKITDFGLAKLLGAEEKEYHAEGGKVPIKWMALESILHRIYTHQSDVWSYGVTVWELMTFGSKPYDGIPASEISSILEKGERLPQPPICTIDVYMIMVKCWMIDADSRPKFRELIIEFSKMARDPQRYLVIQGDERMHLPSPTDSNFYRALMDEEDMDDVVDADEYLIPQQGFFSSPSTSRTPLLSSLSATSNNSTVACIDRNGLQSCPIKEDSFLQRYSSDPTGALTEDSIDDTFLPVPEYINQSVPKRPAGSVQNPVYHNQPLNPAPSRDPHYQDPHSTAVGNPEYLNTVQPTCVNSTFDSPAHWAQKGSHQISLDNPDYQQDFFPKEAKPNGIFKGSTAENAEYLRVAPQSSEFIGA
HIPK1, sequence (Q86Z02 whole entry): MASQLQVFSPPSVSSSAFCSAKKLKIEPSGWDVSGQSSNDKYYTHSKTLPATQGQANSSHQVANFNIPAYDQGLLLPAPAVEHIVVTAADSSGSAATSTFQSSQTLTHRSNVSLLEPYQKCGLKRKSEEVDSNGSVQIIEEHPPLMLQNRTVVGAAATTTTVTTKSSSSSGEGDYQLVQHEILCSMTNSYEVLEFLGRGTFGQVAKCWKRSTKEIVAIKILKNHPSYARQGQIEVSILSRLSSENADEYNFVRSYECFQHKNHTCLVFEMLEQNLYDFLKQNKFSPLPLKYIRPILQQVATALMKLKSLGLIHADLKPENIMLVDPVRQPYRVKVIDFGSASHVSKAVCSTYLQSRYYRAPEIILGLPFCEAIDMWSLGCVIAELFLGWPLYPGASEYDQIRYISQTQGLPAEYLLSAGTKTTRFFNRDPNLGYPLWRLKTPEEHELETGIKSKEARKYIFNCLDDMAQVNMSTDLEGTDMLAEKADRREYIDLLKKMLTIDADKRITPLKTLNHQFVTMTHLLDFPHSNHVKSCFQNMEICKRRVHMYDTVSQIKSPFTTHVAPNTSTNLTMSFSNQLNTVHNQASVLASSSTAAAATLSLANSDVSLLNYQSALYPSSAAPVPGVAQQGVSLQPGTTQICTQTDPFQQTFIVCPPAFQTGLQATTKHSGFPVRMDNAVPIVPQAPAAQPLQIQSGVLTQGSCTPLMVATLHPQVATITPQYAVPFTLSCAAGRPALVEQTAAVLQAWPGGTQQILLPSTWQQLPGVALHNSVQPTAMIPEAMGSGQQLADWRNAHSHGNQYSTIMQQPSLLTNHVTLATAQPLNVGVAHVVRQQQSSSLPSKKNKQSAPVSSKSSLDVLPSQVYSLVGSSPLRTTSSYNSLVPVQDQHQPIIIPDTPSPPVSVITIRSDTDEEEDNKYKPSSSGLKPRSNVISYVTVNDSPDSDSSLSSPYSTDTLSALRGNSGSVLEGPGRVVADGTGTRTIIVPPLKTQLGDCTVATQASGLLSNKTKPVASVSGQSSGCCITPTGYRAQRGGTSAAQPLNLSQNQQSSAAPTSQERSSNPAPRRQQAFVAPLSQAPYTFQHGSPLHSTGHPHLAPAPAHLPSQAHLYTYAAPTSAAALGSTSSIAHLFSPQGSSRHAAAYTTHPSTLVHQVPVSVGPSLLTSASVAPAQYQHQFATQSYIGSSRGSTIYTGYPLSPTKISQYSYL
T1 sequence (Q15759 whole entry): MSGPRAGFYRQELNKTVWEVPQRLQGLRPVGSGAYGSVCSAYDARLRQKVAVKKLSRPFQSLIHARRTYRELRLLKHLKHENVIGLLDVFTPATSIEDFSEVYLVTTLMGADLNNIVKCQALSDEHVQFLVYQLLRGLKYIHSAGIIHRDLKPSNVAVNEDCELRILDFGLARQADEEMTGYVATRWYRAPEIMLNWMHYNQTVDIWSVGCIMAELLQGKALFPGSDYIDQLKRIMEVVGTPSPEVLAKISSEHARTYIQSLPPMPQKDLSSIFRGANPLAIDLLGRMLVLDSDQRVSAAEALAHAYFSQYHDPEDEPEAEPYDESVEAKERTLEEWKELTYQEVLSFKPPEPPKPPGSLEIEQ
T3 sequence (Q99558 whole entry): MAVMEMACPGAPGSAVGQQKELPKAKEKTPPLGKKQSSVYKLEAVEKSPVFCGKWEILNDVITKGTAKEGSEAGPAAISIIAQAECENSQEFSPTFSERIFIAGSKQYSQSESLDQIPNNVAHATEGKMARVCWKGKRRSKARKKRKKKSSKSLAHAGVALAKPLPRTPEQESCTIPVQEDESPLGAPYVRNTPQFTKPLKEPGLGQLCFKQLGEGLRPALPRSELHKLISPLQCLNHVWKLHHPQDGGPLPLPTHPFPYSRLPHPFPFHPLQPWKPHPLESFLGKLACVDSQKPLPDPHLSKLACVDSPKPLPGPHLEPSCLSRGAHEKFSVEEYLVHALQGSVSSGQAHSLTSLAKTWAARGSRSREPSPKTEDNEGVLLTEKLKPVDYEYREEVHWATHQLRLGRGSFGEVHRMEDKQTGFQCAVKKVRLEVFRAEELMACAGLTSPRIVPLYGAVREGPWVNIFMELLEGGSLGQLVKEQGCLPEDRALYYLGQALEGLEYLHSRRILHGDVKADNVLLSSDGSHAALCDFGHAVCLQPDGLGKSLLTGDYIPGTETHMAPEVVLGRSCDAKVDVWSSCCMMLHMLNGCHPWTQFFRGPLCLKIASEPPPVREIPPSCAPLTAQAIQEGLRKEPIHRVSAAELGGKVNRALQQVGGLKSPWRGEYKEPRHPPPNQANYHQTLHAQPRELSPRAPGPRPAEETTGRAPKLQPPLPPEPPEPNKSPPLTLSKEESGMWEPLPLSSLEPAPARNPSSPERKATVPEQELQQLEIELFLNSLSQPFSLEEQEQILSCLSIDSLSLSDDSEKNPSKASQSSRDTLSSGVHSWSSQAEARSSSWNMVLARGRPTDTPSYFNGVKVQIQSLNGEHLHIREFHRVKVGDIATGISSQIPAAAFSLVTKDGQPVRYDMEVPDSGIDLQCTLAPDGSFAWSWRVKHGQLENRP
T2 sequence (P07947 whole entry): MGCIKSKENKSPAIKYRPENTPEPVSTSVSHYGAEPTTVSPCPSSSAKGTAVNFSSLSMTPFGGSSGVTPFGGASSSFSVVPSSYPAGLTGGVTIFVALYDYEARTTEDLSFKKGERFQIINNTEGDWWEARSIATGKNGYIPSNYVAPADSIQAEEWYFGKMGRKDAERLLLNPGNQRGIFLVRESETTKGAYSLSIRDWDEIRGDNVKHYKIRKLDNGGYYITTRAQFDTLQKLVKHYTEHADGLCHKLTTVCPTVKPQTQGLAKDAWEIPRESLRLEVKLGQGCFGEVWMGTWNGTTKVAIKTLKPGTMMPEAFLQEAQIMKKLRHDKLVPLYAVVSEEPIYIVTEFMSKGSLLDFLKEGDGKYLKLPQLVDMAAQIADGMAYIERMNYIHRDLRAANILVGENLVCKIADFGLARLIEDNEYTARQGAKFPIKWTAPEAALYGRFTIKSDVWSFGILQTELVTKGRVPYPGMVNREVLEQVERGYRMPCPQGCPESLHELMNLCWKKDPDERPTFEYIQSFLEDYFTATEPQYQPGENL
CSNK1A1, sequence (P48729 whole entry): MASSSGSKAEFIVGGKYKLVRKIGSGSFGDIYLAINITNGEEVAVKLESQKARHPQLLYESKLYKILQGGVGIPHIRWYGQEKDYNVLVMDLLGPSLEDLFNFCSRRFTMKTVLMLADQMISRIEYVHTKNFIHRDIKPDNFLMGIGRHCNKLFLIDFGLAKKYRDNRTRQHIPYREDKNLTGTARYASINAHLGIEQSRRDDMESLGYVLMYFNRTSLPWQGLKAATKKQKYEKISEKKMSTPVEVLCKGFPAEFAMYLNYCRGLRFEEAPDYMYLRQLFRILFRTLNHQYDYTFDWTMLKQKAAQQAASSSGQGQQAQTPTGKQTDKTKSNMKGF
MKNK1, sequence (Q9BUB5 whole entry): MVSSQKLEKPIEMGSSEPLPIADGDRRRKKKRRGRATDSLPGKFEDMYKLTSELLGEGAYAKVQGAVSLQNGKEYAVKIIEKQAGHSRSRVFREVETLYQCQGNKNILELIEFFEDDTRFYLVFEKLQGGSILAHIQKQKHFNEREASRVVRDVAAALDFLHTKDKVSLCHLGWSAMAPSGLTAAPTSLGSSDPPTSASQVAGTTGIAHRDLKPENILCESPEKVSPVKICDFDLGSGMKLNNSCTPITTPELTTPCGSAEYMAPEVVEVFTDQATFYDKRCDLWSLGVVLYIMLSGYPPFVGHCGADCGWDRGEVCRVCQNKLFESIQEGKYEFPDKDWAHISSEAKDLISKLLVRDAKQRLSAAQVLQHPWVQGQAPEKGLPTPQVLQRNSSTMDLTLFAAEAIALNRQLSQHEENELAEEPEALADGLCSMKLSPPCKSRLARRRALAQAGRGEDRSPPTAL

On to `NC(=O)c1cccc2cn(-c3ccc([C@@H]4CCCNC4)cc3)nc12` [Niraparib], for which the percent of control binding at 10 µM came out at 99% in [1] (setting [14]); 0.95% in assay [2] (setting [14]); 83% in [3] (setting [14]); 100% in assay [4] (setting [14]); 90% in assay [5] (setting [14]); 85% in assay [6] (setting [14]). For the same compound, the percent of control binding at 10 µM came to 34% in assay [7] (setting [14]); 95% in [8] (setting [14]); 86% in assay [9] (setting [14]); 100% in [10] (setting [14]); 100% in [11] (setting [14]); 99% in assay [12] (setting [14]). The percent of control binding at 10 µM in assay [13] (setting [14]) amounted to 92%.
In the case of `Cn1ncnc1[C@H]1c2n[nH]c(=O)c3cc(F)cc(c23)N[C@@H]1c1ccc(F)cc1` [Talazoparib], the percent of control binding at 10 µM in assay [1] (setting [15]) worked out at 86%; in assay [2] (setting [15]), 100%; in assay [3] (setting [15]) it was 92%; in assay [4] (setting [15]) it was 100%; in assay [5] (setting [15]), 75%; in assay [6] (setting [15]) it was 35%. The percent of control binding at 10 µM in assay [7] (setting [15]) was determined as 73%; in assay [8] (setting [15]), 85%; in assay [9] (setting [15]), 99%; in [10] (setting [15]) it was 94%; in assay [11] (setting [15]), 100%; in assay [12] (setting [15]) it was 99%. Further, the percent of control binding at 10 µM in assay [13] (setting [15]) was 100%.
Regarding `CNCc1ccc(-c2[nH]c3cc(F)cc4c3c2CCNC4=O)cc1` [Rucaparib], the percent of control binding at 10 µM in assay [1] (setting [16]) turned out to be 93%; in assay [2] (setting [16]) it was 5.4%; in [3] (setting [16]), 99%; in assay [4] (setting [16]), 74%; in assay [5] (setting [16]), 72%; in [6] (setting [16]) it was 96%. For the same compound, the percent of control binding at 10 µM in assay [7] (setting [16]) was 39%; in assay [8] (setting [16]), 99%; in assay [9] (setting [16]) it was 82%; in [10] (setting [16]), 64%; in assay [11] (setting [16]), 97%; in assay [12] (setting [16]), 89%.
As for `O=C(c1cc(Cc2n[nH]c(=O)c3ccccc23)ccc1F)N1CCN(C(=O)C2CC2)CC1` [Olaparib], the percent of control binding at 10 µM in assay [1] (setting [17]) stood at 90%; in assay [2] (setting [17]), 87%; in assay [3] (setting [17]), 93%; in assay [4] (setting [17]) it was 89%; in assay [5] (setting [17]), 79%; in assay [6] (setting [17]) it was 94%. The percent of control binding at 10 µM in assay [7] (setting [17]) came to 81%; in assay [8] (setting [17]), 100%; in assay [9] (setting [17]) it was 98%; in assay [10] (setting [17]), 83%; in [11] (setting [17]), 82%; in assay [12] (setting [17]), 99%. In [13] (setting [17]), the percent of control binding at 10 µM stood at 100%.
